From US5223411A, “Nonionic surfactants having a carbamoyl group and process for treatment of a proteins containing medium using the same” (Centre National de la Recherche Scientifique (CNRS), priority 1990, dated 1993)
Several values for one entry are separate records, joined by “and”; a condition that tells them apart may be missing. Equal values may be shown once. Read-outs that look alike come from different tables or passages of the source.

How the values were obtained:
[1] = Solubility in water, usual buffers and organic solvents; type: physicochemical
[2] = Stability of HECAMEG solutions; type: physicochemical; details: 4° C.
[3] = CMC, iodine method of Ross and Olivier; type: physicochemical; details: iodine spectrophotometric assay
Experimental: (§1) The CMC of HECAMEG was colorimetrically determined with the iodine method of Ross and Olivier and the Coomassie blue G method of Rosenthal and Koussaie and spectrofluorometrically with the technique of Vendittis et al. In the latter case, excitation was performed at 370 nm and emission recorded at 490 nm.
(§2) The CMC of the detergent was estimated by three distinct spectrophotometric methods of OG (n-octylα-D glucopyranoside) was used for comparison. The iodine spectrophotometric assay indicated a CMC of 17 mM while values of 14.5 and 15 mM were obtained with Coomassie blue G, and 19.5 mM was obtained by spectrofluorometry at 4° and 20° C. The second method was not reliable with OG, while the two other methods indicated for this surfactant, as expected, a CMC of 25 mM.

[4] = CMC, Coomassie blue G method of Rosenthal and Koussaie; type: physicochemical
Experimental: as §1, §2

[5] = CMC, spectrofluorometry (technique of Vendittis et al.); type: physicochemical; details: for CMC: spectrofluorometry at 4° and 20° C.
Experimental: as §1, §2

[6] = Detergent dialysis (Lipoprep apparatus); type: physicochemical; details: 30 mM in 50 mM Na phosphate pH 7.4, 5 kDa cutoff membranes, 25° C.
Experimental: Dialysis experiments with HECAMEG were performed with the Lipoprep apparatus using a three-compartment Teflon cell with two cellulose dialysis membranes (molecular mass cutoff 5 kDa). The central compartment was filled with 8 ml of 30 mM HECAMEG in 50 mM Na phosphate buffer, pH 7.4. The same buffer, but without detergent circulated through the two side compartment for 24 h at 25° C. Dialysis speed was estimated by measuring HECAMEG concentration within the central cell.
The dialyzability of HECAMEG was estimated by the use of the Lipoprep dialysis system under conditions corresponding to those used for the preparation of liposomes. […] Indeed, the concentration of HECAMEG in the central compartment of the cell dropped by 50% upon 3 h of dialysis and the surfactant was no longer detected after about 18 h.

[7] = target: T1, bacteriorhodopsin from the purple membrane of H. halobium (Halobacterium salinarum, UniProt P02945); assay: Membrane protein extraction with detergents, purple membrane
T1 construct: The untrated (native) purple membrane of H. halobium; endogenous in cells; host or cells: Halobacterium halobium R1, purified purple membrane
T1 sequence (P02945 14-262): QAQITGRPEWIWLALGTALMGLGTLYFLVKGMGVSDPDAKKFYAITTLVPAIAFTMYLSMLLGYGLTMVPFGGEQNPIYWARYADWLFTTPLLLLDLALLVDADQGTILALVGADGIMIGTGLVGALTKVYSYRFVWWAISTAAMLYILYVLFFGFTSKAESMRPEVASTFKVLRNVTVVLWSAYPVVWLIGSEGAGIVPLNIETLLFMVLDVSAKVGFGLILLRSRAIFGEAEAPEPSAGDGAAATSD
Source text: Spiroplasma melliferum B88 was cultivated and membranes were purified as described. The purple membrane of Halobium R1 was purified according to Oesterhelt and Stoeckenius (22). Pasteurella multocida was cultivated in liquid medium containing per liter 20 g of Tryptose (Difco), 1 g of glucose, 5 g of NaCl, and 2,5 g of yeast extract (Difco), pH 7.4. The cells were harvested by centrifugation and disrupted with a French press. Plasma membranes were isolated according the technique of Osborn and Munson.
In order to extract membrane proteins, 200 μl of a membrane suspension in 0.1 M Na phosphate buffer (pH 7.4) was mixed with 200 μl of detergent dissolved in water. After 90 min at room temperature, the mixture was centrifuged at 260,000 g for 15 min at 20° C. (Beckman TL-100 ultracentrifuge, TL A 100.1 rotor). The supernatant was recovered for further analysis, while the pellet was dispersed in 400 μl of 2% SDS in 50 mM Tris-HCl buffer (pH 8.0). After 60 min at room temperature, the mixture was centrifuged as above and the supernatant recovered for analysis.
It was possible to extract up to 75% of bacteriorhodopsin from the purple membrane and 40% of protein from the spiroplasmal membrane with 75 mM HECAMEG. This corresponds respectively to ratios of 9 and 26 ug of protein/μmol of detergent. The efficacy of the extraction was not improved by increasing the detergent concentration. […]

[8] = target: T2, spiralin, the main protein of the S. melliferum membrane (Spiroplasma melliferum, UniProt P21625)
T2 construct: Spiroplasma melliferum B88 was cultivated and membranes were purified as described; endogenous in cells; host or cells: Spiroplasma melliferum B88, purified membranes
T2 sequence (P21625 24-242): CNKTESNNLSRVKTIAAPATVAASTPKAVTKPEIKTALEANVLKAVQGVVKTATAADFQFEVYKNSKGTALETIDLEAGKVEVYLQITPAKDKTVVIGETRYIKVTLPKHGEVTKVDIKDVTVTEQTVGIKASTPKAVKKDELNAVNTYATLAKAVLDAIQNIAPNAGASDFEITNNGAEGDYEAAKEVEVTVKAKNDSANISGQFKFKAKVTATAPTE
Experimental: Since the membrane of melliferum has a complex protein composition, the protein extracted by HECAMEG was analyzed by SDS PAGE. Separation of polypeptides was performed in 100×100×4 mm gels in 40 mM Tris-20 mM Na acetate buffer (pH 7.4) containing 2 mM EDTA and 0.1% SDS. The upper gel contained 4.83% acrylamide and 0.17% bisacrylamide while the lower separating gel contained 7.72% acrylamide and 0.28% bisacrylamide. The samples contained 2% SDS and 0.12 M 2 mercaptoethanol and were heated at 60° C. for 5 min prior to electrophoresis. Bromphenol blue was used as the tracking dye. Protein bands were stained with Coomassie blue R-250 in an acetic acid/methanol/water mixture (1/4/5,v/v). […] Optimal selectivity was obtained with surfactant concentration in the 60 to 65 mM range.

spiralin = target: T3, spiralin (Spiroplasma melliferum, UniProt P21625); details: crossed immunoelectrophoresis, rabbit antibodies against S. melliferum membrane
T3 construct: Spiroplasma melliferum B88 was cultivated and membranes were purified as described; endogenous in cells; host or cells: Spiroplasma melliferum B88, purified membranes
T3 sequence (P21625 24-242): as above
Experimental: Antibodies directed against the S. melliferum membrane were prepared in rabbits as described. The hyperimmune sera were filtered through 0.45-μm-pore membranes and stored at -25° C. Crossed immunoelectrophoresis was performed according to the method of Laurell in 1% agarose gel in veronal buffer, pH 8.6 (I=0.03). After unprecipitaded proteins where eluted and gels were dried, immunoprecipitates were stained with Coomassie blue R-250.

bacteriorhodopsin = target: T4, bacteriorhodopsin (Halobacterium salinarum, UniProt P02945); assay: Absorbance spectrum of bacteriorhodopsin; design: species or system H. halobium; details: native 558 nm
T4 construct: The untrated (native) purple membrane of H. halobium; endogenous in cells; host or cells: Halobacterium halobium R1, purified purple membrane
T4 sequence (P02945 14-262): T1 sequence (P02945 14-262)
Experimental: Absorbance of dark-adapted bacteriorhodopsin was recorded between 350 and 700 nm. […] When the membrane was solubilized with 1% SDS, leading to the extensive denaturation of bacteriorhodopsin, the absorbance at 558 nm was lost to the benefit of a new maximum at 390 nm, corresponding to free retinal dissolved in SDS. These two spectra were thus representative, respectively, of the native and denatured forms of bacteriorhodopsin. Upon extraction with HECAMEG, the absorption spectrum of the protein was similar to that of the native state protein with, however, a slight blue shift in the absorption maximum (λmax=550 nm). Some absorption was also recorded at 390 nm, but it was much lower than that in SDS, even when HECAMEG was used at concentrations up to 0.1 M. Because of the scatering of light by membrane particles, the 390-nm peak could not be observed in untreated samples.

[9] = system: P. multocida succinate dehydrogenase; assay: Enzyme assay, succinate dehydrogenase; type: biochemical, Pasteurella multocida; details: for Km: read-out: Km ± SD
Experimental: (§3) P. multocida succinate dehydrogenase was assayed as described by Osborn et al in […] Na phosphate buffer (pH 7.4) containing 10 mM KCN, Na succinate (concentration range: 0.25 to 25 mM), 30 ug of thiazolyl blue, and 10 μg of phenazine methosulfate per milliliter. The samples contained 25, 50, or 100 μg of plasma membrane protein per milliliter and the absorbance at 550 nm was recorded for 10 min at 25° C.P. multocida NADH oxidase was assayed in 50 mM Tris-HCl buffer (pH 8.0) containing 0.2 mM dithiothreitol and 0.12 mM NADH. The samples contained 50,75, or 100 μg of plasma membrane protein per milliliter and the absorbance at 340 nm was recorded as above. The activity of the soluble form of Escherichia coli β-lactamase was measured by using Nitrocefin as substrate and by monitoring the rate of increase in the absorbance at 488 nm for 3 min at 25° C. One milliliter of 20 mM Na phosphate buffer (pH 7.4) contained Nitrocefin (concentration range: 5 to 20 uM) and 0.76 ug (i.e., 2×10^-3 units) of β-lactamase.
(§4) The four enzyme activities were measured in the absence of surfactants and in the presence of 3 or 30 mM HECAMEG. Controls were also performed with 35 mM SDS. Km and V max were determined from Lineweaver-Burk plots, each point being the average of three estimations.

[10] = system: P. multocida NADH oxidase; assay: Enzyme assay, NADH oxidase; type: biochemical, Pasteurella multocida; details: for Km: read-out: Km ± SD
Experimental: as §3, §4

[11] = system: Escherichia coli β-lactamase; assay: Enzyme assay, β-lactamase (Nitrocefin substrate); type: biochemical; details: for Km: read-out: Km ± SD
Experimental: as §3, §4

[12] = target: T5, Bovine milk lactoperoxidase (Bos taurus, UniProt P80025); assay: Enzyme assay, lactoperoxidase (o-dianisidine substrate); type: biochemical
T5 construct: from tissue; host or cells: bovine milk
Experimental: Bovine milk lactoperoxidase was assayed according to George except that o-dianisidine was used as the substrate instead of gaiacol. One milliliter of 20 mM Na phosphate buffer (pH 7.4) contained […] (concentration range: 0.06 to 0.9 mM) 1 mM o-dianisidine, and 25×10^-3 μg (i.e., 1.15×10^-3 units) of lactoper oxidase. The absorbance at 435 nm was recorded as for β-lactamase.
as §4

[13] = stated for comparison; cited from earlier work

SMILES: CCCCCCCNC(=O)OC[C@H]1O[C@H](OC)[C@H](O)[C@@H](O)[C@@H]1O [HECAMEG, 6-0 (N-Heptylcarbamoyl) methyl α-D-glucopyranoside]
- solubility in water ([1]; even at 0° C.): high solubility
- solubility ([1]; usual buffers, in currant buffers, at 4° C., read-out: solubility): > 60 mg/mL
- solubility ([1]; water, Tris-HCl and phosphate buffers, even at 0° C., read-out: solubility in water and usual buffers): ≥ 200000 µM
- solubility in water and organic solvents ([1]; water, alcohols, methylene chloride, tetrahydrofuranne, DMSO): very soluble
- stability of solutions [2]: stable for several weeks
- CMC [3]: 17 mM
- CMC [4]: 14.5 mM and 15 mM
- CMC [5]: 19.5 mM
- critical micellar concentration (CMC) ([5]; summary value, method not named at the place): 19.5 mM and 6.5 g/l
- dialysis time after which surfactant was no longer detected [6]: about 18 h
- drop of concentration in the central compartment ([6]; upon 3 h of dialysis): 50%
- ratio protein extracted per detergent ([7]; 75 mM HECAMEG, purple membrane): 9 ug of protein/μmol of detergent
- membrane protein extraction below the CMC ([7]; concentrations below the CMC): inefficient
- polypeptides extracted (including spiralin) of 28 detected in the membrane ([8]; 60 to 65 mM surfactant): 12
- solubilization of the fibril protein ([8]; S. melliferum membrane): not able to solubilize the fibril protein
- antigenicity of spiralin after solubilization (spiralin): remained highly antigenic
- absorption maximum (λmax) of bacteriorhodopsin (bacteriorhodopsin; upon extraction with HECAMEG): 550 nm
- inhibition of enzyme by the surfactant [9]: not inhibited
- Vmax ± SD ([9]; HECAMEG 0.1%, 3 mM): 163 ± 41 µmol/min
- Km ([9]; HECAMEG 0.1%, 3 mM): 947 ± 52 µM
- Vmax ± SD ([9]; HECAMEG 1%, 30 mM): 357 µmol/min and 357 ± 50 µmol/min
- Km ([9]; HECAMEG 1%, 30 mM): 901 ± 65 µM
- effect on Km and Vmax below the CMC ([9]; below the CMC): neither Km nor Vmax was significantly modified
- inhibition of enzyme by the surfactant [10]: not inhibited
- Vmax ± SD ([10]; HECAMEG 0.1%, 3 mM): 4.0 ± 0.5 µmol/min
- Km ([10]; HECAMEG 0.1%, 3 mM): 12.5 ± 1.2 µM
- Vmax ± SD ([10]; HECAMEG 1%, 30 mM): 10.3 ± 1.2 µmol/min and 10.3 µmol/min
- Km ([10]; HECAMEG 1%, 30 mM): 3.3 ± 0.6 µM
- change of affinity of the enzyme for its substrate ([10]; above the CMC (30 mM)): increased fourfold
- effect on Km and Vmax below the CMC ([10]; below the CMC): neither Km nor Vmax was significantly modified
- change of Vmax ([11]; 30 mM surfactant): decreased threefold
- Vmax ± SD ([11]; HECAMEG 0.1%, 3 mM): 143 ± 16.5 µmol/min
- Km ([11]; HECAMEG 0.1%, 3 mM): 62 ± 10 µM
- Vmax ± SD ([11]; HECAMEG 1%, 30 mM): 30.5 ± 0.4 µmol/min
- Km ([11]; HECAMEG 1%, 30 mM): 18.1 ± 0.6 µM
- enzyme activity above the CMC ([11]; above the CMC): decreased
- effect on enzyme below the CMC ([11]; below the CMC): apparent activation
- change of Vmax ([12]; 30 mM surfactant): increased about threefold
- Vmax ± SD ([12]; HECAMEG 0.1%, 3 mM): (609 ± 30) × 10^-3 μmol/min
- Vmax ± SD ([12]; HECAMEG 1%, 30 mM): (1238 ± 4) × 10^-3 μmol/min
- enzyme activity above the CMC ([12]; above the CMC): increased
- effect on enzyme below the CMC ([12]; below the CMC): apparent activation

SMILES: CCCCCCCCO[C@H]1O[C@H](CO)[C@@H](O)[C@H](O)[C@H]1O [OG, n-octylα-D glucopyranoside, reference compound]
- CMC [3]: 25 mM
- CMC [5]: 25 mM
- CMC of comparison surfactants [13]: 25 mM

SMILES: CCCCCCCCCCCCOS(=O)(=O)[O-].[Na+] [SDS, sodium dodecyl sulfate, reference compound]
- absorption maximum of bacteriorhodopsin preparation (bacteriorhodopsin; membrane solubilized with 1% SDS): 390 nm
- enzyme activity upon treatment with SDS ([9]; 35 mM SDS): completely inhibited
- enzyme activity upon treatment with SDS ([10]; 35 mM SDS): completely inhibited
- enzyme activity with SDS ([11]; 35 mM SDS): fully inhibited
- enzyme activity with SDS ([12]; 35 mM SDS): fully inhibited
